{
  "source": "patent US20230085307A1",
  "about": "“PYRIDAZINONE COMPOUND AND HERBICIDE” (NISSAN CHEMICAL CORPORATION, priority 2019, published 2023)",
  "key": {"[1]": {"system": "barnyard grass", "assay": "Test Example 3: herbicidal effect by foliage application, Wagner pot (Table 18, symbol H)", "type": "in vivo, barnyard grass (Echinochloa crus-galli)", "outline": "(§1)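 Plants were sown in alluvial soil held under 0.1–0.5 cm standing water and grown 14 days in a greenhouse at 25–30 °C. An emulsifiable formulation, water-diluted to the set dose, was then sprayed onto the foliage, and effects were scored three weeks later using previously defined criteria.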"}, "[2]": {"system": "Chinese sprangletop", "assay": "Test Example 3: herbicidal effect by foliage application, Wagner pot (Table 18, symbol D)", "type": "in vivo, chinese sprangletop (Leptochloa chinensis)", "outline": "as §1"}, "[3]": {"system": "rice flat sedge", "assay": "Test Example 3: herbicidal effect by foliage application, Wagner pot (Table 18, symbol E)", "type": "in vivo, rice flat sedge (Cyperus iria)", "outline": "as §1"}, "[4]": {"system": "southern crabgrass", "assay": "Test Example 5: herbicidal effect by foliage application, plastic box (Table 20, symbol F)", "type": "in vivo, southern crabgrass (Digitaria ciliaris)", "outline": "(§2)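 Plants sown in sterilized diluvial soil and grown 14 days in a greenhouse at 25° C to 30° C, then sprayed on the foliage with the compound's emulsion diluted in water to a predetermined herbicide amount. Injury to weeds and crops scored three weeks after application on a visual rating scale.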"}, "[5]": {"system": "green foxtail", "assay": "Test Example 5: herbicidal effect by foliage application, plastic box (Table 20, symbol G)", "type": "in vivo, green foxtail (Setaria viridis)", "outline": "as §2"}, "[6]": {"system": "barnyard grass", "assay": "Test Example 5: herbicidal effect by foliage application, plastic box (Table 20, symbol H)", "type": "in vivo, barnyard grass (Echinochloa crus-galli)", "outline": "as §2"}, "[7]": {"system": "wild oat", "assay": "Test Example 5: herbicidal effect by foliage application, plastic box (Table 20, symbol I)", "type": "in vivo, wild oat (Avena fatua)", "outline": "as §2"}, "[8]": {"system": "blackgrass", "assay": "Test Example 5: herbicidal effect by foliage application, plastic box (Table 20, symbol J)", "type": "in vivo, blackgrass (Alopecurus myosuroides)", "outline": "as §2"}, "[9]": {"system": "Italian ryegrass", "assay": "Test Example 5: herbicidal effect by foliage application, plastic box (Table 20, symbol K)", "type": "in vivo, Italian ryegrass (Lolium multiflorum)", "outline": "as §2"}, "[10]": {"system": "windgrass", "assay": "Test Example 5: herbicidal effect by foliage application, plastic box (Table 20, symbol L)", "type": "in vivo, windgrass (Apera spica-venti)", "outline": "as §2"}, "[11]": {"system": "velvetleaf", "assay": "Test Example 5: herbicidal effect by foliage application, plastic box (Table 20, symbol M)", "type": "in vivo, velvetleaf (Abutilon theophrasti)", "outline": "as §2"}, "[12]": {"system": "redroot pigweed", "assay": "Test Example 5: herbicidal effect by foliage application, plastic box (Table 20, symbol N)", "type": "in vivo, redroot pigweed (Amaranthus retroflexus)", "outline": "as §2"}, "[13]": {"system": "lambsquarters", "assay": "Test Example 5: herbicidal effect by foliage application, plastic box (Table 20, symbol O)", "type": "in vivo, lambsquarters (Chenopodium album)", "outline": "as §2"}, "[14]": {"system": "chickweed", "assay": "Test Example 5: herbicidal effect by foliage application, plastic box (Table 20, symbol P)", "type": "in vivo, common chickweed (Stellaria media)", "outline": "as §2"}, "[15]": {"system": "persian speedwell", "assay": "Test Example 5: herbicidal effect by foliage application, plastic box (Table 20, symbol R)", "type": "in vivo, Persian speedwell (Veronica persica)", "outline": "as §2"}, "[16]": {"settings": "amount of applied herbicide 320 g/ha"}, "[17]": {"settings": "foliage application, 320 g/ha, three weeks after application"}, "[18]": {"settings": "foliage application, AAH 320 g/ha, three weeks after application"}, "[19]": {"settings": "320 g/ha, foliage application after 14-day growth, evaluated three weeks after application"}},
  "data": [
    {"smiles": "COc1ccccc1-c1sc2ccc(F)cc2c1-c1c(O)c(C)nn(Cc2ccccc2)c1=O", "note": "[2-438]", "values": [
      {"measurement": "herbicidal effect on H: barnyard grass", "setting": "[1]; [16]", "result": "2 (Herbicidal rate of 20% or more and less than 40%)"},
      {"measurement": "herbicidal effect on D: Chinese sprangletop", "setting": "[2]; [16]", "result": "0 (Herbicidal rate of 5% or less (almost no effect))"},
      {"measurement": "herbicidal effect on E: rice flat sedge", "setting": "[3]; [16]", "result": "2 (Herbicidal rate of 20% or more and less than 40%)"},
      {"measurement": "F: southern crabgrass, herbicidal effect grade", "setting": "[4]; [17]", "result": "0 (Herbicidal rate of 5% or less (almost no effect))"},
      {"measurement": "G: green foxtail, herbicidal effect grade", "setting": "[5]; [17]", "result": "0 (Herbicidal rate of 5% or less (almost no effect))"},
      {"measurement": "H: barnyard grass, herbicidal effect grade", "setting": "[6]; [17]", "result": "0 (Herbicidal rate of 5% or less (almost no effect))"},
      {"measurement": "I: wild oat, herbicidal effect grade", "setting": "[7]; [17]", "result": "0 (Herbicidal rate of 5% or less (almost no effect))"},
      {"measurement": "J: blackgrass, herbicidal effect grade", "setting": "[8]; [17]", "result": "0 (Herbicidal rate of 5% or less (almost no effect))"},
      {"measurement": "K: Italian ryegrass, herbicidal effect grade", "setting": "[9]; [17]", "result": "0 (Herbicidal rate of 5% or less (almost no effect))"},
      {"measurement": "L: windgrass, herbicidal effect grade", "setting": "[10]; [17]", "result": "0 (Herbicidal rate of 5% or less (almost no effect))"},
      {"measurement": "M: velvetleaf, herbicidal effect grade", "setting": "[11]; [17]", "result": "0 (Herbicidal rate of 5% or less (almost no effect))"},
      {"measurement": "N: redroot pigweed, herbicidal effect grade", "setting": "[12]; [17]", "result": "3 (Herbicidal rate of 40% or more and less than 70%)"},
      {"measurement": "O: lambsquarters, herbicidal effect grade", "setting": "[13]; [17]", "result": "0 (Herbicidal rate of 5% or less (almost no effect))"},
      {"measurement": "P: chickweed, herbicidal effect grade", "setting": "[14]; [17]", "result": "0 (Herbicidal rate of 5% or less (almost no effect))"},
      {"measurement": "R: persian speedwell, herbicidal effect grade", "setting": "[15]; [17]", "result": "0 (Herbicidal rate of 5% or less (almost no effect))"}
    ]},
    {"smiles": "CCCC(=O)Oc1c(OC)nn(C)c(=O)c1-c1c(-c2cccc(OC(F)(F)F)c2)sc2ccccc12", "note": "[1-161]", "values": [
      {"measurement": "herbicidal effect on H (barnyard grass), rating 0-5", "setting": "[1]; 320 g/ha", "result": "1 (Herbicidal rate of 5% or more and less than 20%)"},
      {"measurement": "herbicidal effect on D (Chinese sprangletop), rating 0-5", "setting": "[2]; 320 g/ha", "result": "0 (Herbicidal rate of 5% or less (almost no effect))"},
      {"measurement": "herbicidal effect on E (rice flat sedge), rating 0-5", "setting": "[3]; 320 g/ha", "result": "3 (Herbicidal rate of 40% or more and less than 70%)"},
      {"measurement": "F: southern crabgrass, herbicidal effect", "setting": "[4]; [18]", "result": "0 (Herbicidal rate of 5% or less (almost no effect))"},
      {"measurement": "G: green foxtail, herbicidal effect", "setting": "[5]; [18]", "result": "0 (Herbicidal rate of 5% or less (almost no effect))"},
      {"measurement": "H: barnyard grass, herbicidal effect", "setting": "[6]; [18]", "result": "0 (Herbicidal rate of 5% or less (almost no effect))"},
      {"measurement": "I: wild oat, herbicidal effect", "setting": "[7]; [18]", "result": "0 (Herbicidal rate of 5% or less (almost no effect))"},
      {"measurement": "J: blackgrass, herbicidal effect", "setting": "[8]; [18]", "result": "0 (Herbicidal rate of 5% or less (almost no effect))"},
      {"measurement": "K: Italian ryegrass, herbicidal effect", "setting": "[9]; [18]", "result": "0 (Herbicidal rate of 5% or less (almost no effect))"},
      {"measurement": "L: windgrass, herbicidal effect", "setting": "[10]; [18]", "result": "0 (Herbicidal rate of 5% or less (almost no effect))"},
      {"measurement": "M: velvetleaf, herbicidal effect", "setting": "[11]; [18]", "result": "1 (Herbicidal rate of 5% or more and less than 20%)"},
      {"measurement": "N: redroot pigweed, herbicidal effect", "setting": "[12]; [18]", "result": "3 (Herbicidal rate of 40% or more and less than 70%)"},
      {"measurement": "O: lambsquarters, herbicidal effect", "setting": "[13]; [18]", "result": "0 (Herbicidal rate of 5% or less (almost no effect))"},
      {"measurement": "P: chickweed, herbicidal effect", "setting": "[14]; [18]", "result": "0 (Herbicidal rate of 5% or less (almost no effect))"},
      {"measurement": "R: persian speedwell, herbicidal effect", "setting": "[15]; [18]", "result": "0 (Herbicidal rate of 5% or less (almost no effect))"}
    ]},
    {"smiles": "CCCC(=O)Oc1c(C)nn(C)c(=O)c1-c1c(-c2ccc(OC(F)(F)F)cc2)sc2cc(Cl)ccc12", "note": "[3-150]", "values": [
      {"measurement": "herbicidal effect on barnyard grass (H)", "setting": "[1]; 320 g/ha", "result": "5 (Herbicidal rate of 90% or more (almost completely withered))"},
      {"measurement": "herbicidal effect on Chinese sprangletop (D)", "setting": "[2]; 320 g/ha", "result": "3 (Herbicidal rate of 40% or more and less than 70%)"},
      {"measurement": "herbicidal effect on rice flat sedge (E)", "setting": "[3]; 320 g/ha", "result": "2 (Herbicidal rate of 20% or more and less than 40%)"},
      {"measurement": "herbicidal effect on F: southern crabgrass (evaluation grade 0-5)", "setting": "[4]; [19]", "result": "0 (Herbicidal rate of 5% or less (almost no effect))"},
      {"measurement": "herbicidal effect on G: green foxtail (evaluation grade 0-5)", "setting": "[5]; [19]", "result": "0 (Herbicidal rate of 5% or less (almost no effect))"},
      {"measurement": "herbicidal effect on H: barnyard grass (evaluation grade 0-5)", "setting": "[6]; [19]", "result": "3 (Herbicidal rate of 40% or more and less than 70%)"},
      {"measurement": "herbicidal effect on I: wild oat (evaluation grade 0-5)", "setting": "[7]; [19]", "result": "0 (Herbicidal rate of 5% or less (almost no effect))"},
      {"measurement": "herbicidal effect on J: blackgrass (evaluation grade 0-5)", "setting": "[8]; [19]", "result": "0 (Herbicidal rate of 5% or less (almost no effect))"},
      {"measurement": "herbicidal effect on K: Italian ryegrass (evaluation grade 0-5)", "setting": "[9]; [19]", "result": "0 (Herbicidal rate of 5% or less (almost no effect))"},
      {"measurement": "herbicidal effect on L: windgrass (evaluation grade 0-5)", "setting": "[10]; [19]", "result": "0 (Herbicidal rate of 5% or less (almost no effect))"},
      {"measurement": "herbicidal effect on M: velvetleaf (evaluation grade 0-5)", "setting": "[11]; [19]", "result": "2 (Herbicidal rate of 20% or more and less than 40%)"},
      {"measurement": "herbicidal effect on N: redroot pigweed (evaluation grade 0-5)", "setting": "[12]; [19]", "result": "3 (Herbicidal rate of 40% or more and less than 70%)"},
      {"measurement": "herbicidal effect on O: lambsquarters (evaluation grade 0-5)", "setting": "[13]; [19]", "result": "4 (Herbicidal rate of 70% or more and less than 90%)"},
      {"measurement": "herbicidal effect on P: chickweed (evaluation grade 0-5)", "setting": "[14]; [19]", "result": "3 (Herbicidal rate of 40% or more and less than 70%)"},
      {"measurement": "herbicidal effect on R: persian speedwell (evaluation grade 0-5)", "setting": "[15]; [19]", "result": "5 (Herbicidal rate of 90% or more (almost completely withered))"}
    ]}
  ]
}
